Data as given in patent publication US5202324A, “Imidazopyridazines” (Takeda Chemical Industries, Ltd., priority 1989, dated 1993).

Tested on: bronchoconstriction induced by PAF
Test: Effect on bronchoconstriction induced by platelet activating factor (PAF) in guinea pigs (Konzett-Rossler method)
Type: in vivo, guinea pig (male Hartley)
Settings: Cavia porcellus, po, drug 30 mg/kg orally in 5% gum arabic solution 1 hour before PAF (1 μg/kg i.v.), recorded for 15 minutes
Method: Effect on Bronchoconstriction Induced by Platelet Activating Factor (PAF) in Guinea Pigs
Male Hartley guinea pigs (body weight 500 g) were used. The bronchoconstriction reaction in the guinea pig which has intravenously received PAF (1 μg/Kg) was measured by the Konzett-Rossler method. The trachea of the guinea pig with its back fixed was incised under anesthesia condition with urethane (intraperitoneal injection, 1.5 g/kg) and connected with an artificial respirator via a cannula. The branch of the tracheal cannula was connected with a transducer (7020 type, Ugobasile). Air was sent to the trachea at the volume of 3-7 ml/stroke, at the rate of 70 strokes/min. at load pressure of 10 cm H2 O to lung and overflowed air volume was recorded with Rectegraph (Recte-Hori-8s, Sanei Sokuki) via the transducer. After the guinea pig was treated with galamine (1 mg/kg, i.v.), PAF (1 μg/kg) dissolved in a physiological saline solution was administered to the guinea pig via a jugular venous cannula and the bronchoconstriction reaction induced thereby was recorded for 15 minutes. The drug (30 mg/kg) suspended in a 5% gum arabic solution was administered orally 1 hour before the injection of PAF.

SMILES | inhibition in vivo at 30 mg/kg [%]
CNS(=O)(=O)CCCSc1ccc2nccn2n1 [Example 3] | 41
O=S(=O)(CCCSc1ccc2nccn2n1)NC1CC1 [Example 6] | 47
